Laboratory results: patent US20250171438A1 (Agios Pharmaceuticals, Inc., priority 2022, published 2025)

The compounds below were run against T1, human PAH with the R408W mutation (Homo sapiens, UniProt P00439, R408W) (assay: Cell Based Phenylalanine Flux Assay). Conditions: A375 cells expressing human R408W PAH; 24 hrs compound incubation; 13C-Tyrosine by LC-MS; average where tested multiple times; read-out: AC50.
T1 construct: expressed in transfected cells
T1 sequence (P00439 1-452 R408W): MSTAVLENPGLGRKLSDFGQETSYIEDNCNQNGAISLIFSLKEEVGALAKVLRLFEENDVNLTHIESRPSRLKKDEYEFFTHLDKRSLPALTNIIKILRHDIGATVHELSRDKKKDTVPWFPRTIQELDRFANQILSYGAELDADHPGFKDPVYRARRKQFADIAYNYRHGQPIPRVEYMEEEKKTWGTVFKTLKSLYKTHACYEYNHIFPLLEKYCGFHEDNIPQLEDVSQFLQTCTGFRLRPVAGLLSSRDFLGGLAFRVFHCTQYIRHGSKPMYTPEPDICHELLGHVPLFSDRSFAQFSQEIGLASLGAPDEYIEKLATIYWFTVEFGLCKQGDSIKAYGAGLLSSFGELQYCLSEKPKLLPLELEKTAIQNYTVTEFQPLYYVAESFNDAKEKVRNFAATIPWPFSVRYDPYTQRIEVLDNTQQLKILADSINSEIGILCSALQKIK

AC50, 500 to 1000 nM:
Cn1nc(C(C)(C)C#N)nc1C(=O)N1CCc2[nH]cnc2[C@H]1c1nc2c(F)cccc2s1 [Example 2047, (S)-2-(5-(4-(4-fluorobenzo[d]thiazol-2-yl)-4,5,6,7-tetrahydro-1H-imidazo[4,5-c]pyridine-5-carbonyl)-1-methyl-1H-1,2,4-triazol-3-yl)-2-methylpropanenitrile]
O=C(N1CCc2[nH]cnc2[C@H]1c1nc2ccccc2s1)C1(CF)CC1 [Example 1255]
O=C(c1nnc(-c2c[nH]nc2C(F)(F)F)o1)N1CCc2[nH]cnc2[C@H]1c1nc2ccccc2s1 [Example 1965]
O=C(CCc1ccc(F)cc1)N1CCc2[nH]cnc2[C@H]1c1nc2ccccc2s1 [Example 1005]

AC50, 1000 to 5000 nM:
Cc1ccc2sc([C@H]3c4nc[nH]c4CCN3C(=O)c3cncs3)nc2c1 [Example 1294, (R)-(4-(5-methylbenzo[d]thiazol-2-yl)-6,7-dihydro-1H-imidazo[4,5-c]pyridin-5(4H)-yl)(thiazol-5-yl)methanone]
O=C(CC1CC(F)(F)C1)N1CCc2[nH]cnc2[C@@H]1c1nc2ccccc2s1 [Example 1278, (R)-1-(4-(benzo[d]thiazol-2-yl)-6,7-dihydro-1H-imidazo[4,5-c]pyridin-5(4H)-yl)-2-(3,3-difluorocyclobutyl)ethanone]
Cn1nc(C(F)F)cc1C(=O)N1CCc2[nH]cnc2[C@@H]1c1nc2ccccc2s1 [Example 1804, (R)-(4-(benzo[d]thiazol-2-yl)-6,7-dihydro-1H-imidazo[4,5-c]pyridin-5(4H)-yl)(3-(difluoromethyl)-1-methyl-1H-pyrazol-5-yl)methanone]
Cn1nccc1C(=O)N1CCc2[nH]cnc2[C@@H]1c1nc2c(C(F)(F)F)cccc2s1 [Example 2112, (R)-(1-methyl-1H-pyrazol-5-yl)(4-(4-(trifluoromethyl)benzo[d]thiazol-2-yl)-6,7-dihydro-1H-imidazo[4,5-c]pyridin-5(4H)-yl)methanone]
O=C(c1cn(-c2ccccn2)nc1Cl)N1CCc2[nH]cnc2[C@@H]1c1nc2c(F)cccc2s1 [Example 1770, (R)-(3-chloro-1-(pyridin-2-yl)-1H-pyrazol-4-yl)(4-(4-fluorobenzo[d]thiazol-2-yl)-6,7-dihydro-1H-imidazo[4,5-c]pyridin-5(4H)-yl)methanone]
Cc1n[nH]cc1-c1nnc(C(=O)N2CCc3[nH]cnc3[C@@H]2c2nc3ccccc3s2)o1 [Example 1942, (R)-(4-(benzo[d]thiazol-2-yl)-6,7-dihydro-1H-imidazo[4,5-c]pyridin-5(4H)-yl)(5-(3-methyl-1H-pyrazol-4-yl)-1,3,4-oxadiazol-2-yl)methanone]
O=C(c1nncs1)N1CCc2[nH]cnc2[C@H]1c1nc2cc(F)ccc2s1 [Example 1299, (S)-(4-(5-fluorobenzo[d]thiazol-2-yl)-6,7-dihydro-1H-imidazo[4,5-c]pyridin-5(4H)-yl)(1,3,4-thiadiazol-2-yl)methanone]
Cc1ccn2ncc(C(=O)N3CCc4[nH]cnc4[C@@H]3c3nc4ccccc4s3)c2c1 [Example 1126, (R)-(4-(benzo[d]thiazol-2-yl)-6,7-dihydro-1H-imidazo[4,5-c]pyridin-5(4H)-yl)(5-methylpyrazolo[1,5-a]pyridin-3-yl)methanone]
O=C(CC1CC1)N1CCc2[nH]cnc2[C@@H]1c1nc2cc(F)ccc2s1 [Example 1136, (R)-2-cyclopropyl-1-(4-(5-fluorobenzo[d]thiazol-2-yl)-6,7-dihydro-1H-imidazo[4,5-c]pyridin-5(4H)-yl)ethanone]
CC(C)(c1nc(C(F)F)c(C(=O)N2CCc3[nH]cnc3[C@@H]2c2nc3c(F)cccc3s2)o1)S(C)(=O)=O [Example 2006, (R)-(4-(difluoromethyl)-2-(2-(methylsulfonyl)propan-2-yl)oxazol-5-yl)(4-(4-fluorobenzo[d]thiazol-2-yl)-6,7-dihydro-1H-imidazo[4,5-c]pyridin-5(4H)-yl)methanone]
O=C(c1scnc1Cl)N1CCc2[nH]cnc2[C@@H]1c1nc2c(F)cccc2s1 [Example 1639, (R)-(4-chlorothiazol-5-yl)(4-(4-fluorobenzo[d]thiazol-2-yl)-6,7-dihydro-1H-imidazo[4,5-c]pyridin-5(4H)-yl)methanone]

AC50, > 5000 nM:
COc1cccc(CCCC(=O)N2CCc3[nH]cnc3[C@@H]2c2nc3ccccc3s2)c1 [Example 1014, (R)-1-(4-(benzo[d]thiazol-2-yl)-6,7-dihydro-1H-imidazo[4,5-c]pyridin-5(4H)-yl)-4-(3-methoxyphenyl)butan-1-one]
O=C(CCc1nnc(Br)s1)N1CCc2[nH]cnc2[C@@H]1c1nc2ccccc2s1 [Example 1090, (R)-1-(4-(benzo[d]thiazol-2-yl)-6,7-dihydro-1H-imidazo[4,5-c]pyridin-5(4H)-yl)-3-(5-bromo-1,3,4-thiadiazol-2-yl)propan-1-one]

AC50, < 500 nM:
Cc1nc(C(C)(C)C)oc1C(=O)N1CCc2[nH]cnc2[C@H]1c1nc2ccccc2s1 [Example 1431]
O=C(c1cn(CC2CC(F)(F)C2)nc1Cl)N1CCc2[nH]cnc2[C@H]1c1nc2c(F)cccc2s1 [Example 2003, (S)-(3-chloro-1-((3,3-difluorocyclobutyl)methyl)-1H-pyrazol-4-yl)(4-(4-fluorobenzo[d]thiazol-2-yl)-6,7-dihydro-1H-imidazo[4,5-c]pyridin-5(4H)-yl)methanone]
CC(C)(O)c1nc(Br)c(C(=O)N2CCc3[nH]cnc3[C@H]2c2nc3ccccc3s2)o1 [Example 2089]
Cc1nn(C)cc1-c1ncc(C(=O)N2CCc3[nH]cnc3[C@H]2c2nc3ccccc3s2)s1 [Example 1379]
O=C(CC1CC1)N1CCc2[nH]cnc2[C@H]1c1nc2ccc(Br)cc2s1 [Example 1148, (S)-1-(4-(6-bromobenzo[d]thiazol-2-yl)-6,7-dihydro-1H-imidazo[4,5-c]pyridin-5(4H)-yl)-2-cyclopropylethanone]
O=C(c1nnc(-n2cccn2)o1)N1CCc2[nH]cnc2[C@H]1c1nc2ccccc2s1 [Example 1792]
O=C(c1oc(C2CC(F)(F)C2)nc1C(F)F)N1CCc2[nH]cnc2[C@H]1c1nc2ccccc2s1 [Example 1786]
O=C(CCc1nccs1)N1CCc2[nH]cnc2[C@H]1c1ncc(-c2ccccc2)s1 [Example 2141]
O=C(c1oc(C2(O)CCC2)nc1C(F)(F)F)N1CCc2[nH]cnc2[C@@H]1c1nc2c(F)cccc2s1 [Example 1638, (R)-(4-(4-fluorobenzo[d]thiazol-2-yl)-6,7-dihydro-1H-imidazo[4,5-c]pyridin-5(4H)-yl)(2-(1-hydroxycyclobutyl)-4-(trifluoromethyl)oxazol-5-yl)methanone]
O=C(c1cnc(C2CC2)s1)N1CCc2[nH]cnc2[C@H]1c1nc2ccccc2s1 [Example 1179]
Cc1c(-c2nnc(C(=O)N3CCc4[nH]cnc4[C@H]3c3nc4ccccc4s3)o2)cnn1C [Example 1845]
O=C(c1oc(C2CC2)nc1C(F)F)N1CCc2[nH]cnc2[C@H]1c1nc2c(F)cccc2s1 [Example 1571, (S)-(2-cyclopropyl-4-(difluoromethyl)oxazol-5-yl)(4-(4-fluorobenzo[d]thiazol-2-yl)-6,7-dihydro-1H-imidazo[4,5-c]pyridin-5(4H)-yl)methanone]
Cc1nc(C)c(C(=O)N2CCc3[nH]cnc3[C@H]2c2nc3c(F)cccc3s2)o1 [Example 1321]
O=C(c1oc(-c2ccccn2)nc1C1CC1)N1CCc2[nH]cnc2[C@H]1c1nc2cccc(F)c2s1 [Example 1558]

Same assay, conditions: A375 cells expressing human R408W PAH; 24 hrs with compound; 13C-Tyrosine by LC-MS; average where tested multiple times; read-out: AC50

AC50, 1000 to 5000 nM:
O=C(c1nncs1)N1CCc2[nH]cnc2[C@H]1c1nc2ccccc2[nH]1 (single isomer, unassigned)
O=C(c1cn[nH]c1)N1CCc2[nH]cnc2C1c1nc2ccccc2s1 (stereo not drawn)
COCc1cc(C(=O)N2CCc3[nH]cnc3C2c2nc3c(F)cccc3s2)n(C)n1 (stereo not drawn)
O=C(c1ccns1)N1CCc2[nH]cnc2[C@H]1c1nc2ccccc2[nH]1 [(S)-(4-(1H-benzo[d]imidazol-2-yl)-1,4,6,7-tetrahydro-5H-imidazo[4,5-c]pyridin-5-yl)(isothiazol-5-yl)methanone]
O=C(c1cnn2cc(Cl)ccc12)N1CCc2[nH]cnc2C1c1nc2ccccc2[nH]1 (stereo not drawn)
O=C(c1nccs1)N1CCc2[nH]cnc2C1c1nc2ccc(Br)cc2s1 (stereo not drawn)
Cn1nc(-c2ccccn2)cc1C(=O)N1CCc2[nH]cnc2C1c1nc2c(F)cccc2s1 (stereo not drawn)
O=C(c1cnn2cc(Br)ccc12)N1CCc2[nH]cnc2C1c1nc2ccc(Cl)cc2[nH]1 (stereo not drawn)

AC50, > 5000 nM:
Cc1ccc2c(C(=O)N3CCc4[nH]cnc4C3c3nc4ccc(F)cc4s3)cnn2c1 (stereo not drawn)
O=C(c1ccn[nH]1)N1CCc2[nH]cnc2C1c1nc2c(F)cccc2s1 (stereo not drawn)
Cc1nc(C2CCN2)oc1C(=O)N1CCc2[nH]cnc2C1c1nc2c(F)cccc2s1 (stereo not drawn)
O=C(Cc1cnco1)N1CCc2[nH]cnc2[C@@H]1c1nc2ccccc2s1 (single isomer, unassigned)
O=C(c1cnn2cc(CO)ccc12)N1CCc2[nH]cnc2C1c1nc2ccccc2s1 (stereo not drawn)
O=C(c1ncn2ccccc12)N1CCc2[nH]cnc2C1c1nc2ccc(Br)cc2[nH]1 (stereo not drawn)
